Reference: patent US20060040901A1, “Derivatives of 1,3-cyclic propandiol phosphate and their action as cell stimulants” (YEDA RESEARCH AND DEVELOPMENT CO. Ltd., priority 2002, published 2006)

How the values were obtained:
PC12 cells [1] = assay: Induction of neuronal outgrowth / neuronal differentiation in PC-12 cells; assay type: cell-based, rat; settings: for neural outgrowth: 5 μM, after 8 days, microscope, FIG. 2; for neuronal differentiation / axonal outgrowth: data not shown
Protocol: (§1) In the presence of nerve growth factor these cells differentiate to neuronal cells. PC12 cells originated from rat pheochromocytoma were grown as monolayers in Eagle's medium (EM) supplemented with 10% fetal calf serum, 50 μg/ml gentamicin and 5 mM glutamine, in a humidified incubator buffered with 5% CO2, at 37° C. The culture medium is changed every four days and the cells are passaged every eight days and performed confluent monolayers (1.5×10^6 in a 10 cm plate or 10^5 cells per well in 24 wells plate). PC12 cells are originally round cells which, following several days in the presence of nerve growth factor (NGF) process nerves. Upon withdrawal of the NGF, the nerves retract and a process of apoptosis is initiated in the cells.
PC12 cells were grown in culture as explained above. The cells were divided into two groups and different compounds were added. To the first were added 5 μM 1,3-cyclic propandiol phosphate-5-caproylamido, while as a control to the second portion was added NGF. After a period of 8 days the two groups of PC12 cells were inspected by microscope.

CHO cells = assay: Cell signaling analysis: tyrosine phosphorylation in CHO cells; assay type: cell-based, Chinese Hamster; settings: for intracellular tyrosine phosphorylation: CHO cells, data not shown
Protocol: CHO cultures were grown as described above for PC12 cells. The cultures were divided into two groups and different compounds were added, followed by a period of incubation of from 1 to 30 minutes. Thus one CHO culture was incubated with 5 μM of 1,3-cyclic propandiol phosphate-2-methylamino at 37° C., the control being a similar CHO culture incubated with 1,3-cyclic glycerphosphate under the same conditions. […] In particular it was detected in a series of proteins with molecular weight of ≈35 kDa, ≈45 kDa, ≈60-70 kDa. as shown in FIG. 1.

PC12 cells [2] = assay: Rescue of PC12 cells from NGF deprivation (nerve rescue); assay type: cell-based, rat; settings: data not shown
Protocol: as §1
Similar effects were observed (data not shown) for the following compounds. […] 2-Benzyloxy 1,3-chloropropanediol phosphate (Example 16 above) was dissolved in ethanol and from there introduced by 1:1000 dilution into PC12 cultures.

Rat hippocampal neurons = assay: Neuronal morphology of cultured hippocampal neurons (stage 3); assay type: cell-based; settings: three days
Protocol: Rat hippocampal neurons were cultured at low density in defined medium as described previously (Brann et al., 2002, J Bio Chem 277(12): 9812-9818), with slight modifications. Briefly, the dissected hippocampi of embryonic day 18 rats were dissociated by trypsinization (0.25% w/v, for 15 min at 37° C.). The tissue was washed in Mg^2+/Ca^2+-free Hanks' balanced salt solution (Invitrogen) and dissociated by repeated passage through a constricted Pasteur pipette. Cells were plated in minimal essential medium with 10% horse serum at a density of 25,000 cells per 13-mm glass cover slips that had been precoated with poly-L-lysine (1 mg/ml). After 2-4 hr, cover slips were transferred into 24-well plates (Nunc), containing B27 supplemented Neurobasal medium (Brewer, G. et al., 1993, J Neurosci Res 35: 567-576), and cultures were maintained in this defined medium throughout the experiment.
For morphological analysis, cover slips were removed from the 24-well plates on the 3rd day of culture. Neurons were fixed in 1% (v/v) glutaraldehyde in phosphate-buffered-saline for 20 min at 37° C., and mounted for microscopic examination in 50% glycerol in phosphate-buffered-saline. Neurons were examined by phase contrast microscopy using an Achroplan 32x/0.4 n.a. phase 2 objective of a Zeiss Axiovert 35 microscope. Neuronal growth was analyzed based on established developmental criteria of cultured hippocampal neurons (Schwarz et al., 1995, J Bio Chem 270(18): 10990-10998; Brann et al., 1999, J Neurosci 19(19): 8199-8206) as follows: (i) Only neurons at stage 3 were analyzed in this study. […] (iii) Only those cells in which the whole axon plexus could be unambiguously delineated were measured. (iv) The number of axonal branch points per cell were measured. […]
Images of neurons were acquired using NIH image (version 1.62) software. The analyze mode was set to a proportional ratio scale of pixel to μm, the outline of the neuron was copied using the freehand line tool, and the line length measured and analyzed according to the morphological criteria outlined above. […]

Row | Compound | intracellular tyrosine phosphorylation (CHO cells) | neuronal differentiation / axonal outgrowth (PC12 cells [1]) | also measured
1 | CCCCCC(=O)NC1COP(=O)(O)OC1 (stereo not shown) [Example 4, 1,3-cyclic propandiol phosphate-5-caproylamido] | – | – | neural outgrowth (PC12 cells [1]): promoted neural outgrowth
2 | NP1(=O)OCCCO1 [Example 13, 1,3-cyclic propanediol phosphoamidate] | capable of inducing tyrosine phosphorylation | did not induce neuronal differentiation | rescue from NGF deprivation (nerve rescue) (PC12 cells [2]): did rescue them from NGF deprivation
3 | NGF: nerve growth factor, in whose presence PC12 cells differentiate to neuronal cells | – | – | neural outgrowth (PC12 cells [1]): did not exhibit such promotion of neural outgrowth
4 | CC1COP(=O)(O)OC1 (stereo not shown) [Example 10, 2-methyl 1,3-cyclic propanediol phosphate] | – | triggering axonal outgrowth | –
5 | 2-caproimido 1,3-chloropropanediol phosphate [Example 17] | induced tyrosine phosphorylation | neuronal differentiation | –
6 | CCNP1(=O)OCCCO1 [Example 14, 1,3-cyclic propanediol N-ethyl phosphoamidate] | promoted tyrosine phosphorylation | did not induce neuronal differentiation | –
7 | CNC1COP(=O)(O)OC1 (stereo not shown) [Example 7, 1,3-cyclic propandiol phosphate-2-methylamino] | – | – | exposure time after which augmented tyrosine phosphorylation was noticed (CHO cells; CHO culture, 5 μM, 37° C.): ≤ 1 min; tyrosine phosphorylation of proteins (≈35 kDa, ≈45 kDa, ≈60-70 kDa) (CHO cells; CHO culture, 5 μM, 37° C., incubation 1 to 30 minutes, control 1,3-cyclic glycerphosphate, FIG. 1): Augmented tyrosine phosphorylation
8 | O=P1(O)OCCCO1 [Example 9, 1,3-cyclic propanediol phosphate] | – | triggering axonal outgrowth | total elongation of axon plexus compared to non-treated cells (Rat hippocampal neurons; pyramidal rat embryo hippocampal cells, 5 μM, FIG. 3): 32%; increase in length of the longest axon (main axon) compared to non-treated cells (Rat hippocampal neurons; pyramidal rat embryo hippocampal cells, 5 μM, FIG. 4): about 20%; increase in axonal branch points per cell compared with non-treated cells (Rat hippocampal neurons; rat embryo hippocampal cells, FIG. 5): about 47%
